Molecular target: T1, human DPP-IV (Homo sapiens, UniProt P27487)
T1 construct: made in house; host or cells: Pichia pastoris
Assay: DPP-IV activity assay (fluorometric/colorimetric), IC50 determination
Assay type: biochemical
Settings: natural human DPP-IV from human plasma pool or recombinant human DPP-IV; 37° C., pH 7.8; substrate 50 μM (fluorogenic) or 200 μM (colorimetric)
Protocol: Activity of DPP-IV inhibitors are tested with natural human DPP-IV derived from a human plasma pool or with recombinant human DPP-IV. […] In the calorimetric DPP-IV assay 5 to 10 μl human plasma and in the fluorometric assay 1.0 μl of human plasma in a total assay volume of 100 μl is used as an enzyme source. […] Human DPP-IV is expressed and purified from the culture medium using conventional column chromatography including size exclusion and anion and cation chromatography.
A 20 mM stock solution in 10% DMF/H2O is stored at −20° C. until use.
A 10 mM stock solution in 10% MeOH/H2O is stored at −20° C. until use.
Fluorescence is detected in a Perkin Elmer Luminescence Spectrometer LS 50B at an excitation wavelength of 400 nm and an emission wavelength of 505 nm continuously every 15 seconds for 10 to 30 minutes. Initial rate constants are calculated by best fit linear regression.
Initial rate constants are calculated by best fit linear regression.
DPP-IV activity assays are performed in 96 well plates at 37° C. in a total assay volume of 100 μl. The assay buffer consists of 50 mM Tris/HCl pH 7.8 containing 0.1 mg/ml BSA and 100 mM NaCl. […] Enzyme reactions are started with substrate application followed by immediate mixing.

T1 sequence (P27487 31-766): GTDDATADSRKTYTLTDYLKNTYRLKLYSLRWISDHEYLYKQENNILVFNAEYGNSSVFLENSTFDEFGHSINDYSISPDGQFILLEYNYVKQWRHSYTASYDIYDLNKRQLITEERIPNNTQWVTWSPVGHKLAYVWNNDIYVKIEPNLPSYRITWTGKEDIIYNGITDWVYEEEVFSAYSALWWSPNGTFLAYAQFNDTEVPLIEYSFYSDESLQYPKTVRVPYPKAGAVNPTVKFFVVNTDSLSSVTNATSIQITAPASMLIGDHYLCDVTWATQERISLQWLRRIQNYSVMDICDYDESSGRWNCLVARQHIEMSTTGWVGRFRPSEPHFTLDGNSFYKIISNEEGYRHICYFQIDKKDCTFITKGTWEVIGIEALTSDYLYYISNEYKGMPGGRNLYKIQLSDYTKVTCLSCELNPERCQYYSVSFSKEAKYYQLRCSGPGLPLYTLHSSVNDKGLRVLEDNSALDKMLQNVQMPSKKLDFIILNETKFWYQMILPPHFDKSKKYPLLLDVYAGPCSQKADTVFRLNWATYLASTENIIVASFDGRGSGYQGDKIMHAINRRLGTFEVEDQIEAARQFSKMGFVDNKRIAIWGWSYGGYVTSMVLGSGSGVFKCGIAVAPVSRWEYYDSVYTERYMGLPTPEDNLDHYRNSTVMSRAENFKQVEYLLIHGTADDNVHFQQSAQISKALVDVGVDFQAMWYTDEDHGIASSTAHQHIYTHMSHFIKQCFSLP

Row | Compound | IC50 [nM]
1 | COc1ccc(N2CC[C@@H](N)[C@@H](C(=O)N3CCSC3)C2)cc1OC (racemic) [Example 40, 3 [(3S,4R) and (3R,4S)-4-Amino-1-(3,4-dimethoxy-phenyl)-piperidine-3-yl]-thiazolidin-3-yl-methanone] | 820
2 | NC1CCN(CCc2ccccc2)CC1c1cccc(Cl)c1 (stereo not drawn) [Example 23, 3-(3-Chloro-phenyl)-1-phenethyl-piperidine-4-ylamine] | 160
3 | N[C@@H]1CCN(CCc2ccccn2)C[C@@H]1C(=O)N1CCSC1 [Example 36] | 290
